Reference: the supplement of paper PMC11451515

Legend:
Test in all cases: AUC of viability dose-response curve (% viability x log10 dose units); higher = less sensitive
Conditions in all cases: 48 h
NOMO1 = tested on: NOMO1
Procedure, shortened: (§1)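 Medium-adapted leukemia cells in 1536-well plates, at 500 or 1000 cells/well, were incubated for 48 h at 37°C with library compounds in DMSO at 11 threefold doses from 47 μM to 0.79 nM. CellTiter-Glo One luminescence normalised per plate to DMSO and cell-free wells was fitted with a four-parameter log-logistic model over log10 doses. Area under the curve was integrated from this fit by trapezoidal rule, with curves beyond full viability scaled and failed quality-control curves removed.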

P12-Ichikawa = tested on: P12-Ichikawa
Procedure, shortened: as §1

SEM cells = tested on: SEM cells
Procedure, shortened: as §1

[1] = RPMI 5 mM glucose + 10% dialyzed FBS

SMILES | AUC of viability dose-response curve (NOMO1; HPLM + 10% dialyzed FBS) | AUC of viability dose-response curve (NOMO1; RPMI 5 mM glucose + 10% FBS) | AUC of viability dose-response curve (NOMO1; [1]) | AUC of viability dose-response curve (P12-Ichikawa; HPLM + 10% dialyzed FBS) | AUC of viability dose-response curve (P12-Ichikawa; RPMI 5 mM glucose + 10% FBS) | AUC of viability dose-response curve (P12-Ichikawa; [1]) | AUC of viability dose-response curve (SEM cells; HPLM + 10% dialyzed FBS) | AUC of viability dose-response curve (SEM cells; RPMI 5 mM glucose + 10% FBS) | AUC of viability dose-response curve (SEM cells; [1])
C1CCC(C(CC2CCCCN2)C2CCCCC2)CC1 (configuration not stated) | 451 | 454 | 446 | 470 | 457 | 465 | 429 | 429 | 405
CC[C@H]1/C=C\C=C/C[C@@H](C)[C@H](O)[C@@](C)(O)C(=O)[C@@H](C)[C@H](O)[C@@H](C)C(=O)[C@@H](C)[C@H](O)[C@@H](C)/C=C/C(=O)O[C@@H]2[C@H](C)[C@H](CC1)O[C@]1(CC[C@H](C)[C@H](C[C@@H](C)O)O1)[C@H]2C | 368 | 331 | 324 | 389 | 388 | 363 | 362 | 340 | 354
C\C1=C\C(=O)C2=C(C=CC=C2)C1=O | 466 | 460 | 456 | 465 | 440 | 468 | 464 | 458 | 435
CCCCNc1cc(C(=O)O)cc([S+](N)(=O)[O-])c1Oc1ccccc1 | 477 | 427 | 461 | 458 | 465 | 465 | 419 | 433 | 440
CC(C)Oc1cc(Nc2nc(N[C@@H](C)c3ccc(F)cn3)ncc2Cl)n[nH]1 | 449 | 409 | 412 | 344 | 349 | 366 | 319 | 310 | 291
CC(=O)N1CCN(c2ccc(OC[C@H]3CO[C@](Cn4ccnc4)(c4ccc(Cl)cc4Cl)O3)cc2)CC1 | 437 | 456 | 470 | 449 | 456 | 452 | 391 | 340 | 336
O=C(CO)N1CCC(c2n[nH]c(-c3ccc(Cl)cc3)c2-c2ccncn2)CC1 | 438 | 453 | 446 | 441 | 420 | 423 | 411 | 403 | 404
CC\1=C(C(=O)N(\C=C1)C2=CC=C(C=C2)C3=NC=CO3)/C4=CC5=CN=C(N)N=C5C=C4 | 470 | 456 | 472 | 472 | 467 | 465 | 383 | 387 | 350
CC(C)(C)C(=O)Oc1ccc([S+](=O)([O-])Nc2ccccc2C(=O)NCC(=O)O)cc1 | 428 | 437 | 443 | 416 | 423 | 420 | 465 | 436 | 471
CCOC(=O)N1CCN(/[N+]([O-])=N/Oc2ccc([N+](=O)[O-])cc2[N+](=O)[O-])CC1 | 462 | 429 | 412 | 447 | 425 | 398 | 303 | 324 | 337
COc1cc(O)c2c(c1)C1OC1C[C@H](O)[C@H](O)C(=O)/C=C\C[C@H](C)OC2=O (some centres not stated) | 418 | 427 | 427 | 443 | 441 | 442 | 394 | 394 | 384
COc1cc(C(C)=O)ccc1OCCCN1CCC(c2noc3cc(F)ccc23)CC1 | 468 | 468 | 464 | 470 | 472 | 471 | 468 | 446 | 455
CC(=O)Nc1ccc([C@H](C)C(=O)Nc2ncc(C(C)C)s2)cc1 | 397 | 365 | 386 | 403 | 411 | 408 | 390 | 393 | 387
O=C(NC[C@H]1CN(c2ccc(N3CCOCC3=O)cc2)C(=O)O1)c1ccc(Cl)s1 | 345 | 312 | 345 | 372 | 376 | 395 | 423 | 459 | 444
Cc1c(Cn2c(C)nc3c(C(=O)O)cc(N4CCOCC4)cc32)cccc1C(F)(F)F | 448 | 474 | 465 | 472 | 463 | 470 | 469 | 463 | 455
CC1(C)OC2CC3C4CC(F)C/5=C/C(=O)/C=C\C5(C)C4C(O)CC3(C)[C@@]2(O1)C(=O)CO (some centres not stated) | 454 | 465 | 456 | 390 | 340 | 325 | 386 | 360 | 354
CC1(C)C(=O)N(CCN2CCC(C(=O)c3ccc(F)cc3)CC2)c2ccccc21 | 468 | 465 | 459 | 469 | 472 | 462 | 471 | 455 | 471
OC[C@H]1O[C@H]([C@@H](F)[C@@H]1O)N2\C=C/C(=O)NC2=O | 470 | 430 | 464 | 460 | 475 | 449 | 454 | 463 | 432
